test system: SMARTCAR-MTH1-wt-HiBiT (Jurkat.7 cells); assay: HiBit Lytic Assay (HiBit DC50, MTH1 degraders of Table 2); type: cell-based, human; details: Jurkat.7 SMARTCAR-MTH1-wt-HiBiT cells, compound treatment time 4 hr, 11-point half log dose response
Procedure, shortened: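 Jurkat.7 cells expressing SMARTCAR-MTH1-wt-HiBiT were treated at 37° C with 11-point half-log dilutions (top final 1000 nM or 833 nM, duplicates, 0.1% DMSO). Remaining HiBiT-tagged protein was read by Nano-Glo HiBiT lytic luminescence, normalized to media-only and DMSO controls.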

DC50, < 100 nM:
CNC(=O)c1cnc2cc(OC)c(-c3ccc(C(=O)NCCCCn4cc(CNc5cccc6c5C(=O)N(C5CCC(=O)NC5=O)C6=O)nn4)cn3)cc2c1Nc1ccccc1 (stereo not shown) [Compound 376, 6-(5-((4-(4-(((2-(2,6-dioxopiperidin-3-yl)-1,3-dioxoisoindolin-4-yl)amino)methyl)-1H-1,2,3-triazol-1-yl)butyl)carbamoyl)pyridin-2-yl)-7-methoxy-N-methyl-4-(phenylamino)quinoline-3-carboxamide]
CNc1c(C(=O)NC2CC2)cnc2cc(OC)c(-c3ccc(C(=O)NCCCCn4cc(CNc5cccc6c5C(=O)N(C5CCC(=O)NC5=O)C6=O)nn4)nc3)cc12 (stereo not shown) [Compound 397, N-cyclopropyl-6-[6-[4-[4-[[[2-(2,6-dioxo-3-piperidyl)-1,3-dioxo-isoindolin-4-yl]amino]methyl]triazol-1-yl]butylcarbamoyl]-3-pyridyl]-7-methoxy-4-(methylamino)quinoline-3-carboxamide]
CNC(=O)c1cnc2cc(F)c(-c3ccc(C(=O)NCCCCn4cc(CNc5cccc6c5C(=O)N(C5CCC(=O)NC5=O)C6=O)nn4)nc3)cc2c1Nc1ccccc1 (stereo not shown) [Compound 389, 6-(6-((4-(4-(((2-(2,6-dioxopiperidin-3-yl)-1,3-dioxoisoindolin-4-yl)amino)methyl)-1H-1,2,3-triazol-1-yl)butyl)carbamoyl)pyridin-3-yl)-7-fluoro-N-methyl-4-(phenylamino)quinoline-3-carboxamide]
CNc1c(C(=O)NC2CC2)cnc2cc(C(F)(F)F)c(-c3ccc(C(=O)NCCCCn4cc(C5(Nc6cccc7c6C(=O)N(C6CCC(=O)NC6=O)C7=O)CC5)nn4)c(F)c3)cc12 (stereo not shown) [Compound 421, N-cyclopropyl-6-[4-[4-[4-[1-[[2-(2,6-dioxo-3-piperidyl)-1,3-dioxo-isoindolin-4-yl]amino]cyclopropyl]triazol-1-yl]butylcarbamoyl]-3-fluoro-phenyl]-4-(methylamino)-7-(trifluoromethyl)quinoline-3-carboxamide]
CNC(=O)c1cnc2ccc(NCCCCCCCCCCNC(=O)C(C)Nc3cccc4c3C(=O)N(C3CCC(=O)NC3=O)C4=O)cc2c1Nc1ccccc1 (stereo not shown) [Compound 444, 6-((10-(2-((2-(2,6-dioxopiperidin-3-yl)-1,3-dioxoisoindolin-4-yl)amino)propanamido)decyl)amino)-N-methyl-4-(phenylamino)quinoline-3-carboxamide]
CNC(=O)c1cnc2ccc(-c3ccc(C(=O)NCCCCCCCCc4cccc5c4CN(C4CCC(=O)NC4=O)C5=O)cc3)cc2c1Nc1ccccc1 (stereo not shown) [Compound 378, 4-anilino-6-[4-[8-[2-(2,6-dioxo-3-piperidyl)-1-oxo-isoindolin-4-yl]octylcarbamoyl]phenyl]-N-methyl-quinoline-3-carboxamide]
CNc1c(C(=O)NC2CC2)cnc2cc(C(F)(F)F)c(-c3ccc(C(=O)NCCCCCCCCc4ccc5c(n4)CN(C4CCC(=O)NC4=O)C5=O)c(F)c3)cc12 (stereo not shown) [Compound 409, N-cyclopropyl-6-[4-[8-[6-(2,6-dioxo-3-piperidyl)-5-oxo-7H-pyrrolo[3,4-b]pyridin-2-yl]octylcarbamoyl]-3-fluoro-phenyl]-4-(methylamino)-7-(trifluoromethyl)quinoline-3-carboxamide]
CNC(=O)c1cnc2ccc(NCCCCCCCCCCNC(=O)CN(C)c3cccc4c3C(=O)N(C3CCC(=O)NC3=O)C4=O)cc2c1Nc1ccccc1 (stereo not shown) [Compound 447, 6-((10-(2-((2-(2,6-dioxopiperidin-3-yl)-1,3-dioxoisoindolin-4-yl)(methyl)amino)acetamido)decyl)amino)-N-methyl-4-(phenylamino)quinoline-3-carboxamide]
NC(=O)c1cnc2ccccc2c1Nc1ccc(-c2ccc(C(=O)NCCCCNC(=O)COc3cccc4c3C(=O)N(C3CCC(=O)NC3=O)C4=O)cc2)cc1 (stereo not shown) [Compound 309, 4-[4-[4-[4-[[2-[2-(2,6-dioxo-3-piperidyl)-1,3-dioxo-isoindolin-4-yl]oxyacetyl]amino]butylcarbamoyl]phenyl]anilino]quinoline-3-carboxamide]
CC(NC(=O)CCCCNC(=O)CNc1cccc2c1C(=O)N(C1CCC(=O)NC1=O)C2=O)c1ccc(-c2cc3c(Nc4ccccc4)c(C(=O)NC4CC4)cnc3cc2F)cc1F (stereo not shown) [Compound 429, 4-anilino-N-cyclopropyl-6-[4-[1-[5-[[2-[[2-(2,6-dioxo-3-piperidyl)-1,3-dioxo-isoindolin-4-yl]amino]acetyl]amino]pentanoylamino]ethyl]-3-fluoro-phenyl]-7-fluoro-quinoline-3-carboxamide]
CNC(=O)c1cnc2ccc(C(=O)NCCCCCCCCCNC(=O)COc3cccc4c3C(=O)N(C3CCC(=O)NC3=O)C4=O)cc2c1Nc1ccccc1 (stereo not shown) [Compound 446, N6-(9-(2-((2-(2,6-dioxopiperidin-3-yl)-1,3-dioxoisoindolin-4-yl)oxy)acetamido)nonyl)-N3-methyl-4-(phenylamino)quinoline-3,6-dicarboxamide]
CNc1c(C(=O)NC2CC2)cnc2cc(C(F)(F)F)c(-c3ccc(C(=O)NCCCCn4cc(C(C)Nc5cccc6c5C(=O)N(C5CCC(=O)NC5=O)C6=O)nn4)c(F)c3)cc12 (stereo not shown) [Compound 430, N-cyclopropyl-6-[4-[4-[4-[1-[[2-(2,6-dioxo-3-piperidyl)-1,3-dioxo-isoindolin-4-yl]amino]ethyl]triazol-1-yl]butylcarbamoyl]-3-fluoro-phenyl]-4-(methylamino)-7-(trifluoromethyl)quinoline-3-carboxamide]
COc1cc2ncc(C(=O)NC3CC3)c(Nc3ccccc3)c2cc1-c1ccc(C(=O)NCCCCn2cc(CNc3cccc4c3C(=O)N(C3CCC(=O)NC3=O)C4=O)nn2)nc1 (stereo not shown) [Compound 396, 4-anilino-N-cyclopropyl-6-[6-[4-[4-[[[2-(2,6-dioxo-3-piperidyl)-1,3-dioxo-isoindolin-4-yl]amino]methyl]triazol-1-yl]butylcarbamoyl]-3-pyridyl]-7-methoxy-quinoline-3-carboxamide]
COc1ccc(CNc2c(C(=O)NC3CC3)cnc3cc(OC)c(-c4ccc(C(=O)NCCCCn5cc(CNc6cccc7c6C(=O)N(C6CCC(=O)NC6=O)C7=O)nn5)nc4)cc23)cc1 (stereo not shown) [Compound 395, N-cyclopropyl-6-[6-[4-[4-[[[2-(2,6-dioxo-3-piperidyl)-1,3-dioxo-isoindolin-4-yl]amino]methyl]triazol-1-yl]butylcarbamoyl]-3-pyridyl]-7-methoxy-4-[(4-methoxyphenyl)methylamino]quinoline-3-carboxamide]
CNC(=O)c1cnc2ccc(NCCCCCCCCCCNC(=O)[C@@H](C)Nc3cccc4c3C(=O)N(C3CCC(=O)NC3=O)C4=O)cc2c1Nc1ccccc1 (stereo partly drawn) [Compound 443, 6-((10-((2R)-2-((2-(2,6-dioxopiperidin-3-yl)-1,3-dioxoisoindolin-4-yl)amino)propanamido)decyl)amino)-N-methyl-4-(phenylamino)quinoline-3-carboxamide]
COc1cc2ncc(C(=O)NC3CC3)c(Nc3ccccc3)c2cc1-c1ccc(C(=O)NCCCCn2cc(COc3cccc4c3C(=O)N(C3CCC(=O)NC3=O)C4=O)nn2)c(F)c1 (stereo not shown) [Compound 414, 4-anilino-N-cyclopropyl-6-[4-[4-[4-[[2-(2,6-dioxo-3-piperidyl)-1,3-dioxo-isoindolin-4-yl]oxymethyl]triazol-1-yl]butylcarbamoyl]-3-fluoro-phenyl]-7-methoxy-quinoline-3-carboxamide]

From patent US20210198256A1, “COMPOUNDS FOR THE DEGRADATION OF BRD9 OR MTH1” (C4 Therapeutics, Inc., priority 2018, published 2021)
